In ChEMBL document CHEMBL4396887, “Five-Membered N-Heterocyclic Scaffolds as Novel Amino Bioisosteres at γ-Aminobutyric Acid (GABA) Type A Receptors and GABA Transporters” (J Med Chem, 2019):
Calls of active or inactive are those of the source. No cut-off for these calls is given here.

Assays:
Homo sapiens [1] = species on record: Homo sapiens
[2] = target: T1, GABA-A receptor; alpha-1/beta-2/gamma-2 (Homo sapiens) (UniProt P14867+P47870+P18507); test: (§1) Agonist activity at recombinant human GABA-A alpha1beta2gamma2S receptor transiently expressed in human tsA201 cells incubated for 30 mins and measured up to 90 secs by FMP dye based FLIPR membrane potential blue assay; format: cell-based
[3] = target: T2, GABA-A receptor; alpha-1/beta-2/gamma-2 (Homo sapiens, UniProt P14867+P47870+P18507); test: as §1; format: cell-based
T2 sequence (P14867 whole entry): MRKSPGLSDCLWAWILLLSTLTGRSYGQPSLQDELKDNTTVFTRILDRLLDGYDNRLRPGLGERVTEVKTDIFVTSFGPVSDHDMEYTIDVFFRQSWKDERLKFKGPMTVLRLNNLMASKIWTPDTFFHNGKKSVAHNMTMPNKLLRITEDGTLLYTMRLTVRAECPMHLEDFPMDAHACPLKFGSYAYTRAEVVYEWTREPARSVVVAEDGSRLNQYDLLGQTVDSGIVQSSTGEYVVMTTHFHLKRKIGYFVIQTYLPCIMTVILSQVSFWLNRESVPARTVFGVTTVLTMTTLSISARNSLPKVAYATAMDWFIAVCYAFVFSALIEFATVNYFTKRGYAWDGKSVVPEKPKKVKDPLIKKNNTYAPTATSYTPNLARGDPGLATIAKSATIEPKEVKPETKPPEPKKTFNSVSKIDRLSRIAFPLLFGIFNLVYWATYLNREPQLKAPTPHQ
T2 sequence (P47870 whole entry): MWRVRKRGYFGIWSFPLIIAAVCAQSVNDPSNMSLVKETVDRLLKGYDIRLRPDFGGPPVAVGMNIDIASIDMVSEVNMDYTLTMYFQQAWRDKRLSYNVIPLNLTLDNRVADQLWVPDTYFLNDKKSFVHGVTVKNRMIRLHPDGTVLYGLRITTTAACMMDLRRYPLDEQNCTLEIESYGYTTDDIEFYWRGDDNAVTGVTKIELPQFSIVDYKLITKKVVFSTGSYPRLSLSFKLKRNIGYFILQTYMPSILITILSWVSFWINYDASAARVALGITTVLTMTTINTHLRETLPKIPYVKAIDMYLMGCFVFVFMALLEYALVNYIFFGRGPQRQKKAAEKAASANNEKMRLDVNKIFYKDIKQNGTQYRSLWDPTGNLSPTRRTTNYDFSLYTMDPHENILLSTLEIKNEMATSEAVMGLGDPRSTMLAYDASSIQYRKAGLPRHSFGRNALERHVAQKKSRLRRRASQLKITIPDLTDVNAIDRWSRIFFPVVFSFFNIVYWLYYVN
T2 sequence (P18507 whole entry): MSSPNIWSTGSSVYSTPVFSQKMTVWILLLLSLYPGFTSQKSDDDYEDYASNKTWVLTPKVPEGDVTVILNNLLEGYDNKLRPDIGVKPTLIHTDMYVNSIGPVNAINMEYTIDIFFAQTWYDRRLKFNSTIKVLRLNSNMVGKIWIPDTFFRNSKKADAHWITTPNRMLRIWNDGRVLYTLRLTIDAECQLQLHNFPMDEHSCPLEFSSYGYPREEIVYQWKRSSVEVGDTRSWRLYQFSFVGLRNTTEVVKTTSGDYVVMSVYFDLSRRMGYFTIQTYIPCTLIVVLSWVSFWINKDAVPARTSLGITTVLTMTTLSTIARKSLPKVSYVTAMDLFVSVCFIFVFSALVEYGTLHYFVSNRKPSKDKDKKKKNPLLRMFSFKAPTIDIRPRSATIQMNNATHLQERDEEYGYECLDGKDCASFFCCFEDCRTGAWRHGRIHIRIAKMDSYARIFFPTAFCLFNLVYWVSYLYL

[4] = target: T3, Gamma-aminobutyric acid receptor subunit rho-1 (Homo sapiens, UniProt P24046); test: Agonist activity at recombinant human GABA-A rho-1 receptor transiently expressed in human tsA201 cells at >= 100 uM incubated for 30 mins and measured up to 90 secs by FMP dye based FLIPR membrane potential blue assay; format: cell-based
[5] = target: T1, GABA-A receptor; alpha-1/beta-2/gamma-2 (Homo sapiens); test: Agonist activity at recombinant human GABA-A alpha1beta2gamma2S receptor transiently expressed in human tsA201 cells at >= 300 uM incubated for 30 mins and measured up to 90 secs by FMP dye based FLIPR membrane potential blue assay; format: cell-based
[6] = target: T3, Gamma-aminobutyric acid receptor subunit rho-1; test: Agonist activity at recombinant human GABA-A rho-1 receptor transiently expressed in human tsA201 cells assessed as GABA-induced maximum response incubated for 30 mins and measured up to 90 secs by FMP dye based FLIPR membrane potential blue assay relative to GABA; format: cell-based
[7] = target: T4, Gamma-aminobutyric acid receptor subunit alpha-4/beta-2/gamma-2 (Homo sapiens, UniProt P47870+P18507+P48169); test: Agonist activity at recombinant human GABA-A alpha4beta2gamma2S receptor transiently expressed in human tsA201 cells at >= 300 uM incubated for 30 mins and measured up to 90 secs by FMP dye based FLIPR membrane potential blue assay; format: cell-based
[8] = target: T3, Gamma-aminobutyric acid receptor subunit rho-1; test: Agonist activity at recombinant human GABA-A rho-1 receptor transiently expressed in human tsA201 cells at 300 uM incubated for 30 mins and measured up to 90 secs by FMP dye based FLIPR membrane potential blue assay; format: cell-based
[9] = target: T4, Gamma-aminobutyric acid receptor subunit alpha-4/beta-2/gamma-2; test: Agonist activity at recombinant human GABA-A alpha4beta2gamma2S receptor transiently expressed in human tsA201 cells at >= 100 uM incubated for 30 mins and measured up to 90 secs by FMP dye based FLIPR membrane potential blue assay; format: cell-based
[10] = target: T3, Gamma-aminobutyric acid receptor subunit rho-1; test: Antagonist activity at recombinant human GABA-A rho-1 receptor transiently expressed in human tsA201 cells incubated for 30 mins and measured up to 90 secs by FMP dye based FLIPR membrane potential blue assay; format: cell-based
[11] = target: Gamma-aminobutyric acid receptor subunit alpha-4/beta-2/gamma-2 (Homo sapiens, UniProt P18507+P47870+P48169); test: Agonist activity at recombinant human GABA-A alpha4beta2gamma2S receptor transiently expressed in human tsA201 cells incubated for 30 mins and measured up to 90 secs by FMP dye based FLIPR membrane potential blue assay; format: cell-based; conditions: read-out: EC50
Homo sapiens [12] = species on record: Homo sapiens; test: Selectivity ratio of IC50 for human GAT3 expressed in Flp-In CHO cells to IC50 for human BGT1 expressed in Flp-In CHO cells; format: cell-based
[13] = Ionization constant, pKa2 of the compound at 1 mM by potentiometric titration assay; format: physicochemical
Homo sapiens [14] = species on record: Homo sapiens; test: Selectivity ratio of IC50 for human GAT2 expressed in Flp-In CHO cells to IC50 for human BGT1 expressed in Flp-In CHO cells; format: cell-based
Homo sapiens [15] = species on record: Homo sapiens; test: Agonist activity at recombinant human GABA-A alpha3beta2gamma2S receptor transiently expressed in human tsA201 cells at >= 300 uM incubated for 30 mins and measured up to 90 secs by FMP dye based FLIPR membrane potential blue assay; format: cell-based
[16] = target: T4, Gamma-aminobutyric acid receptor subunit alpha-4/beta-2/gamma-2; test: Agonist activity at recombinant human GABA-A alpha4beta2gamma2S receptor transiently expressed in human tsA201 cells at >= 1000 uM incubated for 30 mins and measured up to 90 secs by FMP dye based FLIPR membrane potential blue assay; format: cell-based

Chain of Gamma-aminobutyric acid receptor subunit alpha-4/beta-2/gamma-2 (Homo sapiens, UniProt P18507+P47870+P48169) (P48169 whole entry, one chain of several): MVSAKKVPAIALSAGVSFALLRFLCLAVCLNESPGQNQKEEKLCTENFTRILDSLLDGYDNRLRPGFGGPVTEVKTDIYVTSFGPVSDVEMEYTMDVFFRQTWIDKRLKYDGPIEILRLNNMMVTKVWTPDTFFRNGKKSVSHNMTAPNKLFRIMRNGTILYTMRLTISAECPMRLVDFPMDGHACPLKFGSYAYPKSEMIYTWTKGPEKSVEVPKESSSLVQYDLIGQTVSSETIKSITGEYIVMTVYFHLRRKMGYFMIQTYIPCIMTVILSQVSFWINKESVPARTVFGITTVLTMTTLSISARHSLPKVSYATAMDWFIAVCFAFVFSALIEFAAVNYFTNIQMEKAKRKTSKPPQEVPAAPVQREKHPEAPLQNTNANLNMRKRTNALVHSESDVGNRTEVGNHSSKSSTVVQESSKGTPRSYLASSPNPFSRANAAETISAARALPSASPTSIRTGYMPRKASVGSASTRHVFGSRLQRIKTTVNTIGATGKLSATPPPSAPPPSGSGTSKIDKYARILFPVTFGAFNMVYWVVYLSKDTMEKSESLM
T3 sequence (P24046 whole entry): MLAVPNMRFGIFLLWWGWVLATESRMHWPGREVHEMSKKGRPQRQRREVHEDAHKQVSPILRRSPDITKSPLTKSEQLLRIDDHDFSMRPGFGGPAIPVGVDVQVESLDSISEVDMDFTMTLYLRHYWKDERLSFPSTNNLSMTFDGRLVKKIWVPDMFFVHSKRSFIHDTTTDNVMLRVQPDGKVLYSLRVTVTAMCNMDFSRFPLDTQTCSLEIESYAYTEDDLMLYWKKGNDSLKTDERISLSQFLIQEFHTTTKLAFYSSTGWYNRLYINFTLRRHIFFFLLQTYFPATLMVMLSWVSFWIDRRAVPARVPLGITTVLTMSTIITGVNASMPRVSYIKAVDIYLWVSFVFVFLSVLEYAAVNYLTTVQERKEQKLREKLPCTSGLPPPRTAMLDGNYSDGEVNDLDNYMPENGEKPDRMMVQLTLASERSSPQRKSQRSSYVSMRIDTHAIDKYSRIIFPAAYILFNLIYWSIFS

O=C(O)C[C@@H]1CCNC1
pEC50 (Homo sapiens [1]): inactive | pEC50 [2]: inactive | EC50 [3]: Not Active | Activity [4]: Active | Activity [5]: Active | Rmax [6]: inactive | Activity [7]: Active

C[C@@H](C(=O)O)[C@H]1CSC(N)=N1 (relative stereo)
Activity [8]: inactive | Activity [9]: Active | IC50 [10]: 300 µM

CC(C(=O)O)C1CSC(N)=N1 (stereo in doubt; l-10b)
EC50 [3]: Not Active

O=C(O)C[C@H]1CCNC1
EC50 [11]: 8.1 µM | Rmax [6]: 101%

NC1=NC(CC(=O)O)CN1 (stereo not given)
EC50 [11]: 14 µM | Ratio IC50 (Homo sapiens [12]): 14 to 44 | Rmax [6]: 64% | pKa at 1000 µM [13]: 10.1 | Ratio IC50 (Homo sapiens [14]): 14 to 44

C[C@H]1SC(N)=N[C@@H]1CC(=O)O (relative stereo)
pEC50 (Homo sapiens [1]): inactive | pEC50 [2]: inactive | EC50 [3]: Not Active | Activity [4]: Active | Activity [5]: Active | Rmax [6]: inactive | Activity [7]: Active | Activity (Homo sapiens [15]): Active

O=C(O)CC1CNC=N1 (stereo not given)
EC50 [11]: 7.9 µM | Rmax [6]: 45% | pKa at 1000 µM [13]: 9.63

NC1=NC(CC(=O)O)CS1 (stereo not given)
EC50 [11]: 1.3 µM | Rmax [6]: 43% | pKa at 1000 µM [13]: 8.62

CC(C(=O)O)C1CSC(N)=N1 (stereo in doubt; l-10a)
EC50 [11]: 26 µM

C[C@@H](C(=O)O)[C@@H]1CSC(N)=N1 (relative stereo)
Activity [16]: Active | Rmax [6]: 35%

C[C@@H]1SC(N)=N[C@@H]1CC(=O)O (relative stereo)
pEC50 [2]: inactive | EC50 [3]: Not Active | Activity [8]: inactive | Activity [7]: Active | IC50 [10]: 100 µM
